From patent US12258477B2, “Silicon-substituted rhodamine dyes and dye conjugates” (Life Technologies Corporation, priority 2018, dated 2025)
“Also recorded” adds a separate entry of the source.

Legend:
[1] = system: A549 cells; test: Photobleaching of dye-labeled secondary antibody conjugates in fixed cells without anti-fade medium; type: cell-based; details: GAM antibody conjugates (13 DOL 4.7, 14 DOL 4.0, AF647 DOL 4.9); over 700 seconds exposure, no anti-fade medium
Method: A549 cells were plated at a density of 5,000 cells per well on Greiner 96 well plates and allowed to adhere overnight. The following day, they were treated for two hours at 37° C. with 50 μM etoposide to induce phosphorylation of pH2AX for antibody probing, then fixed for 20 minutes at room temperature in 4% PFA, prepared in PBS. After fixation, cells were rinsed 3× in PBS and permeabilized for 20 minutes with 0.1% Triton X-100, prepared in PBS. Following Triton treatment, cells were washed 3× in PBS and placed in blocking solution, made with 3% BSA in PBS. Each plate was treated with primary antibody, prepared in blocking solution at 5 μg/mL, either […]. Following incubation with primary antibody, cells were washed 3× in PBS and stored in blocking solution before probing with secondary antibody. Secondary antibody labeled with Compound 13 (DOL 4.7); Compound 14 (DOL 4.0) or AF647 (DOL 4.9) was prepared from 5 μg/mL in blocking solution and cells were incubated for one hour at room temperature before washing 3× in PBS and moving plates to the CX-5 CellInsight for quantification of signal. The fluorescent signal data was collected every second for over 700 seconds' period. […]
Fluorescence intensity was monitored in samples mounted without anti-fade medium over a period of about 12 minutes of exposure to excitatory light.

[2] = Fluorescence characteristics of goat anti-mouse (GAM) IgG conjugates in PBS; type: physicochemical; details: for Max Abs / Max Em: GAM IgG conjugate in PBS; for Absorption of IgG conjugates / Emission of IgG conjugates: Table 6, IgG conjugates in PBS
Method: (§1) The fluorescence characteristics of various disclosed compounds and ALEXA FLUOR™ 647 dye (AF647) dissolved in water (dye only) or as goat anti-mouse (GAM) IgG conjugates dissolved in phosphate buffered saline (PBS) were determined. Three replicates were performed to determine the excitation and emission maxima and quantum yield. Quantum yield was measured for the dye only samples.
The effect of conjugation of an SiR, in this example Compounds 8, 10A, and 12, to IgG on absorbance (shown in FIG. 11A) and on emission (shown in FIG. 11B) maxima were compared with IgG-AF647. The absorption and emission maxima of the SiR-conjugates (665 nm/690 nm) are approximately 20 nm red-shifted compared with AF647 conjugate. The emission maximum shifted 15 nm to red.

[3] = Fluorescence characteristics, dye only dissolved in water; type: physicochemical; details: for Emission in water (λem) / absorption in water (λabs): Table 6, in water; for shift of absorption maxima to blue when each vinyl group was changed to a methyl: relative to Compound 11
Method: as §1
Experiments were performed to examine the effect of different SiR substitution patterns on absorption maxima using Compounds 10A, 11, 12, and 13. One or both of the vinyl groups of Compound 11 are replaced with methyl in Compounds 10A and 12, respectively. In Compound 13, one methyl group on each of the two exocyclic amines was eliminated relative to Compound 12. […] A 30 nm shift was observed when one methyl group on each of the two exocyclic amines was eliminated (Table 6). Therefore, modification of SiR dyes using groups linked to the SiR moiety through the Si have a smaller effect than the removal of methyl groups.

[4] = system: Fixed HeLa cells; test: Fixed cell nuclear staining and photostability vs TO-PRO-3 (Example 4); type: cell-based; details: 1 μM, Cy5 channel
Method: The fluorescence intensity and photostability of Compound 7 were compared with TO-PRO-3, a fixed cell nucleic acid stain with far-red fluorescence. Fixed HeLa cells were stained with 1 μM Compound 7 or TO-PRO-3 for 30 minutes at RT and prepared for imaging using the Cy5 channel of a fluorescence microscope.

[5] = Excitation and emission maxima of compounds dissolved in solvents; type: physicochemical
Method: Certain compounds were tested when dissolved in solvents. Three replicates were performed to determine the excitation and emission maxima.

[6] = system: tubulin; test: Immunofluorescence tubulin staining with dye-labeled antibody conjugates vs AF647 (Example 9); type: cell-based, mouse
Method: The fluorescence intensity of SiR conjugates, Compound 10A (DOL=15) and Compound 10A (DOL=10), where DOL is the degree of labeling, were compared to an AF647 conjugate using fluorescence microscopy. Live mouse cells were stained with mouse anti-tubulin conjugated to AF647 (shown in FIG. 12A), or mouse anti-tubulin conjugated with Compound 10A (DOL=15 shown in FIG. 12B) at increasing concentrations for 60 minutes at 25° C. After washing with PBS buffer to remove excess dye, images were collected using the Cy5 channel of a fluorescence microscope and analyzed using integrated software. […] The SiR dyes gave images 6-8 fold dimmer that AF647 in the Cy5 channel, consistent with the shifted maxima discussed above. […] Little to no photobleaching was observed during imaging.

[7] = system: Live HeLa cells; test: Live cell nuclear staining with ESP-SiR isomers, HeLa (Example 12); type: cell-based; details: 1 μM, 30 min 37 °C
Method: The fluorescence intensity of each isomer of Compound 4 (Compound 4B and Compound 4C) was compared using fluorescence microscopy. A DMSO stock solution (1 mM) was used to prepare solutions of each isomer to a final concentration of 5, 2.5, 1.25 and 0.6 μM in PBS containing probenecid.
Live HeLa or A549 cells were stained with each concentration of isomer for 30 minutes at 37° C. After washing with LCIS buffer to remove excess dye, images from 5 replicates were collected using the Cy5 channel of a fluorescence microscope and analyzed using HCS Studio software. […] The mean nuclear signal intensity was almost 2-fold higher in both cell types stained with Compound 4B than in the cells stained with Compound 4C at each of the concentrations tested.
The fluorescence intensity of Compound 4B and 4C was compared to SiR-Hoechst (Spirochrome, Switzerland) using fluorescence microscopy. Live HeLa cells were stained with SiR-Hoechst or Compound 4B or 4C at 1 μM for 30 minutes at 37° C. After washing with LCIS buffer to remove excess dye, images from 5 replicates were collected using the Cy5 and D API channels of a fluorescence microscope and analyzed using HCS Studio software.

[8] = system: tubulin; test: Tubulin staining of live cells with docetaxel probes vs SiR-Taxol (Examples 3, 13); type: cell-based; details: live HeLa, 0.5 μM, 30 min 37 °C
Method: The fluorescence intensity of Compound 5 (a tubulin probe using docetaxel as the target-binding moiety) was compared to SiR-Taxol (Spirochrome, Switzerland). Live HeLa cells were stained with 0.5 μM Compound 5 or SiR-Taxol for 30 minutes at 37° C. and prepared for imaging. Images are shown in FIGS. 4A-4B (stained with Compound 5), and FIGS. 4C-4D (stained with SiR-Taxol).
The fluorescence intensity of two diasteromers of Compound 5 and a mixture of two isomers was compared to SiR-Taxol (Spirochrome, Switzerland). Live HeLa cells were stained with 0.5 μM of each compound for 30 minutes at 37° C. and prepared for imaging.

[9] = system: Live HeLa cells; test: Live cell nuclear staining, fluorescence microscopy vs SiR-Hoechst (Example 2); type: cell-based; details: 1 μM and 2 μM
Method: The fluorescence intensity of Compound 4 was compared to SiR-Hoechst (Spirochrome, Switzerland) using fluorescence microscopy. Live HeLa cells were stained with SiR-Hoechst or Compound 4 at 1 μM or 2 μM for 30 minutes at 37° C. After washing with LCIS buffer to remove excess dye, images from 5 replicates were collected using the Cy5 channel of a fluorescence microscope and analyzed using HCS Studio software. Representative images of cells are shown in FIGS. 3A-3B (stained with SiR-Hoechst) and FIGS. 3C-3D (stained with Compound 4). […] The mean nuclear signal intensity was 48% higher in the cells stained with Compound 4 than in the cells stained with SiR-Hoechst, based on averaging the ratios of fluorescence intensity at 1 μM and 2 μM.

Row | Compound | Max Abs [2] [nm] | Max Em [2] [nm] | Absorption of IgG conjugates [2] [nm] | Emission of IgG conjugates [2] [nm] | Max Abs ([3]; Dye Only in water) [nm] | Max Em ([3]; Dye Only in water) [nm] | Quantum Yield ([3]; Dye Only in water) | Quantum Yield ([3]; Table 6) [%] | Emission in water (λem) [3] [nm] | absorption in water (λabs) [3] [nm] | further results
1 | Si,Si-dimethyl-N, N-dimethyl-SiR [Compound 13] | 635 | 655 | 635 | 655 | 630 | 642 | 0.5 | 50 | 642 | 630 | resistance to photobleaching [1]: substantially resistant to photobleaching; also recorded: much more resistant to photobleaching; shift of absorption maxima when one methyl group on each of the two exocyclic amines was eliminated ([3]; relative to Compound 12): 30 nm
2 | CN1CCN(c2ccc3[nH]c(-c4ccc5[nH]c(-c6ccc(OCCCCNC(=O)C7CCN(C(=O)c8ccccc8C8=C9C=CC(=[N+](C)C)C=C9[Si](C)(C)c9cc(N(C)C)ccc98)CC7)cc6)nc5c4)nc3c2)CC1 [Compound 7] | – | – | – | – | – | – | – | – | – | – | staining brightness, Compound 7 vs TO-PRO-3 ([4]; 30 min RT): unexpectedly brighter than TO-PRO-3 staining; fluorescence after a 1 minute exposure to excitation light [4]: still retained substantial fluorescence; Max Abs ([5]; Solvent TE): 672 nm; Max Em ([5]; Solvent TE): 678 nm
3 | CN(C)c1ccc2c(c1)[Si](C)(C)C1=CC(=[N+](C)C)C=CC1=C2c1ccccc1C(=O)N1CCC(C(=O)O)CC1 [Compound 7A] | – | – | – | – | – | – | – | – | – | – | Max Abs ([5]; Solvent MeOH): 657 nm; Max Em ([5]; Solvent MeOH): 682 nm
4 | C[n+]1c(/C=C/C=C2\C=CN(CCC[N+](C)(C)C)c3ccccc32)sc2ccccc21 [TO-PRO-3, reference compound] | – | – | – | – | – | – | – | – | – | – | fluorescence after a 1 minute exposure to excitation light [4]: little to no fluorescence was observable; also recorded: more diminished
5 | Si-vinyl-Si-methyl-N,N-tetramethyl-SiR [Compound 10A] | – | – | 668 | 688 | – | – | – | 41 | 678 | 666 | shift of absorption maxima to blue when each vinyl group was changed to a methyl [3]: about 5 nm; photobleaching during imaging / photostability vs AF647 [6]: better photostability than AF647; target specificity, off-target or background fluorescence [6]: no off-target or background fluorescence; brightness compared with AF647 ([6]; Cy5 channel): less bright than AF647
6 | C=C[Si]1(C=C)c2cc(N(C)C)ccc2C2(OC(=O)c3ccccc32)c2ccc(N(C)C)cc21 [Compound 11, Si,Si-Divinyl-N,N-tetramethyl-SiR] | 671 | 693 | 671 | 692 | 670 | 683 | 0.38 | 38 | 683 | 670 | –
7 | Si,Si-dimethyl-N, N-tetramethyl-SiR [Compound 12] | 662 | 681 | 664 | 683 | 661 | 673 | 0.45 | 45 | 673 | 661 | shift of absorption maxima to blue when each vinyl group was changed to a methyl [3]: about 5 nm
8 | CN1CCN(c2ccc3nc(-c4ccc5nc(-c6ccc(OCCCCNC(=O)c7ccc(C(=O)[O-])c(C8=C9C=CC(=[N+](C)C)C=C9[Si](C)(C)c9cc(N(C)C)ccc98)c7)cc6)[nH]c5c4)[nH]c3c2)CC1 [SiR-Hoechst] | – | – | – | – | – | – | – | – | – | – | signal on the DAPI channel [7]: almost no signals were observed
9 | CC(=O)O[C@@]12CO[C@@H]1C[C@H](O)[C@@]1(C)C(=O)[C@H](O)C3=C(C)[C@@H](OC(=O)[C@H](O)[C@@H](NC(=O)CCCCCNC(=O)CCSCC[Si]4(C)C5=CC(=[N+](C)C)C=CC5=C(c5ccccc5C(=O)[O-])c5ccc(N(C)C)cc54)c4ccccc4)C[C@@](O)([C@@H](OC(=O)c4ccccc4)C12)C3(C)C (stereo partly shown) [Compound 5] | – | – | – | – | – | – | – | – | – | – | Max Abs ([5]; Solvent MeOH/HCl): 650 nm; Max Em ([5]; Solvent MeOH/HCl): 676 nm; fluorescence signal compared with SiR-Taxol [8]: brighter signal than cells stained with SiR-Taxol
10 | CN1CCN(c2ccc3[nH]c(-c4ccc5[nH]c(-c6ccc(OCCCCNC(=O)CCSCC[Si]7(C)C8=CC(=[N+](C)C)C=CC8=C(c8ccccc8C(=O)[O-])c8ccc(N(C)C)cc87)cc6)nc5c4)nc3c2)CC1 (stereo not shown) [Compound 4] | – | – | – | – | – | – | – | – | – | – | mean nuclear signal intensity, higher than in cells stained with SiR-Hoechst ([9]; live HeLa, 30 min 37 °C, Cy5 channel, averaged ratios of fluorescence intensity): 48%; staining brightness compared with SiR-Hoechst ([9]; live cells): noticeably brighter
